Measured values taken from article PMC10165273, “Itch receptor MRGPRX4 interacts with the receptor activity–modifying proteins” (The Journal of Biological Chemistry, 2023).
“And” between values parts separate entries of the source, which are not always exact repeats. Equal entries are not always repeated. Where two headings read alike, the source gives them in different places.

Target: T1, MRGPRX4 + RAMP1 (Homo sapiens, UniProt Q96LA9)
T1 construct: expressed in transfected cells; host or cells: HEK293T
Experiment: IP1 accumulation, MRGPRX4 coexpressed with RAMP1
Type: cell-based
Design: key to IP1 Basal / response to agonist, X4:ramp1.I:1 / response to agonist, X4:ramp1.I:2 / response to agonist, X4:ramp1.I:0.25 / response to agonist, X4:ramp1.I:0.5: % IP1; unstimulated mock = 0%, fully stimulated MRGPRX4 = 100%; potency: unit not given here
Details: for IP1 accumulation (normalized): MRGPRX4+RAMP1 1pg 1:1, Supplementary Figure 5d, 5g
Method: HEK293T cells were transfected with 1 pg/cell of MRGPRX4 DNA, and the amount of DNA was kept constant at 2 pg/cell with pcDNA3.1(+) empty vector, unless otherwise specified. Twenty four hours after transfection, IP1 assay was performed as previously described ([51]). When applicable, cells were treated with 1 μM YM254890 (YM) or different concentrations of U73122 for 1 h prior to addition of agonist or buffer. After incubation for 2 h, HTRF reagents and IP1 calibration standards were added and incubated for 2 h in the dark at room temperature. Time-resolved fluorescence signals were read on the BioTek Synergy NEO-TRF Hybrid multi-mode reader (BioTek Instruments). All data were carried out in three independent experiments with three technical replicate each.
For a homogenous transfection of MRGPRX4, a master mix of MRGPRX4 DNA was made prior to addition of the RAMP DNA. […]
Data reduction, standard calibration, and transformation of HTRF data were performed as previously described ([51]). Normalized IP1 values were calculated relative to the unstimulated mock-transfected cells (set to 0%) and fully stimulated MRGPRX4 (alone if applicable) (set to 100%).

T1 sequence (Q96LA9 whole entry): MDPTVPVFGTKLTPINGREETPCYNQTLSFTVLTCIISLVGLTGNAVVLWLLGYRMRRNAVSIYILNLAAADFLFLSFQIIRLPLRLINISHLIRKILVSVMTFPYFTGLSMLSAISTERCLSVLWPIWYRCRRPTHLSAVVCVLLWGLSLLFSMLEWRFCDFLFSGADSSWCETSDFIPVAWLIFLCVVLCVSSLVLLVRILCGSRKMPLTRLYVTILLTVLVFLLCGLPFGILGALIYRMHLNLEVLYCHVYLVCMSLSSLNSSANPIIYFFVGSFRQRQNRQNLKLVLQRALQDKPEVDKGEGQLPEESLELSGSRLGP

`CC(C)[C@H]1CC[C@H](C(=O)N[C@H](Cc2ccccc2)C(=O)O)CC1` [Nateglinide] was tested, and the Emax (Figure 4a bottom, DNA ratio MRGPRX4:RAMP1 1:1, MRGPRX4 alone = 100, read-out: efficacy) was 126%, the EC50 (Figure 4a top, DNA ratio MRGPRX4:RAMP1 1:0.25, individual replicates, read-out: potency (converted)) was 11.1 µM and 9.42 µM and 15.2 µM and the potency (Figure 4a top, DNA ratio MRGPRX4:RAMP1 1:0.5, individual replicates) was 5.042. For the same molecule, the EC50 (Figure 4a top, DNA ratio MRGPRX4:RAMP1 1:0.5, individual replicates, read-out: potency (converted)) was 10.5 µM, the EC50 (Figure 4a top, DNA ratio MRGPRX4:RAMP1 1:0.75, individual replicates, read-out: potency (converted)) was 10.7 µM and 11.9 µM and 6.64 µM and the EC50 (Figure 4a top, DNA ratio MRGPRX4:RAMP1 1:1, individual replicates, read-out: potency (converted)) was 9.29 µM and 9.23 µM. For the same molecule, the “response to agonist, X4:ramp1.I:0.25” value (Figure 4c-f, agonist 100µM, X4:ramp1 1:0.25, MRGPRX4 = 100) was 94.0571 and 91.2695, the “response to agonist, X4:ramp1.I:0.5” value (Figure 4c-f, agonist 100µM, X4:ramp1 1:0.5, MRGPRX4 = 100) was 83.4975 and 100.084 and the “response to agonist, X4:ramp1.I:1” value (Figure 4c-f, agonist 100µM, X4:ramp1 1:1, MRGPRX4 = 100) was 101.298 and 92.1048. For the same molecule, the “response to agonist, X4:ramp1.I:2” value (Figure 4c-f, agonist 100µM, X4:ramp1 1:2, MRGPRX4 = 100) was 90.9768 and 105.34, the “IP1 Basal” value (MRGPRX4 + RAMP1 0.25 pg (Fig. S3), normalized per agonist) was 19.44 and the EC50 (MRGPRX4 + RAMP1 0.25 pg (Fig. S3), normalized per agonist, read-out: IP1 EC50) was 11.5 µM. The Emax (MRGPRX4 + RAMP1 0.25 pg (Fig. S3), normalized per agonist, read-out: IP1 Emax) was 112%, the Emax (MRGPRX4 + RAMP1 0.25 pg (Fig. S3), normalized per agonist, read-out: IP1 span) was 92.4% and the “IP1 Basal” value (MRGPRX4 + RAMP1 0.5 pg (Fig. S3), normalized per agonist) was 18.21. It also gave an EC50 (MRGPRX4 + RAMP1 0.5 pg (Fig. S3), normalized per agonist, read-out: IP1 EC50) of 9.56 µM, an Emax (MRGPRX4 + RAMP1 0.5 pg (Fig. S3), normalized per agonist, read-out: IP1 Emax) of 115% and an Emax (MRGPRX4 + RAMP1 0.5 pg (Fig. S3), normalized per agonist, read-out: IP1 span) of 96.6%. The “IP1 Basal” value (MRGPRX4 + RAMP1 1 pg (Fig. S3), normalized per agonist) was 16.52, the EC50 (MRGPRX4 + RAMP1 1 pg (Fig. S3), normalized per agonist, read-out: IP1 EC50) was 9.45 µM and the Emax (MRGPRX4 + RAMP1 1 pg (Fig. S3), normalized per agonist, read-out: IP1 Emax) was 114%. For the same molecule, the Emax (MRGPRX4 + RAMP1 1 pg (Fig. S3), normalized per agonist, read-out: IP1 span) was 97.4%, the “IP1 Basal” value (MRGPRX4 + RAMP1 2 pg (Fig. S3), normalized per agonist) was 11.98 and the EC50 (MRGPRX4 + RAMP1 2 pg (Fig. S3), normalized per agonist, read-out: IP1 EC50) was 9.37 µM. For the same molecule, the Emax (MRGPRX4 + RAMP1 2 pg (Fig. S3), normalized per agonist, read-out: IP1 Emax) was 114%, the Emax (MRGPRX4 + RAMP1 2 pg (Fig. S3), normalized per agonist, read-out: IP1 span) was 102% and the “IP1 Basal” value (Tet-On MRGPRX4:RAMP1 Ratio 1:0.5 (Fig. S5D)) was 7.772. For the same molecule, the EC50 (Tet-On MRGPRX4:RAMP1 Ratio 1:0.5 (Fig. S5D), read-out: IP1 EC50) was 8.42 µM, the Emax (Tet-On MRGPRX4:RAMP1 Ratio 1:0.5 (Fig. S5D), read-out: IP1 Emax) was 111% and the Emax (Tet-On MRGPRX4:RAMP1 Ratio 1:0.5 (Fig. S5D), read-out: IP1 span) was 104%. The “IP1 Basal” value (Tet-On MRGPRX4:RAMP1 Ratio 1:0.75 (Fig. S5D)) was 6.875, the EC50 (Tet-On MRGPRX4:RAMP1 Ratio 1:0.75 (Fig. S5D), read-out: IP1 EC50) was 5.95 µM and the Emax (Tet-On MRGPRX4:RAMP1 Ratio 1:0.75 (Fig. S5D), read-out: IP1 Emax) was 90%. For the same molecule, the Emax (Tet-On MRGPRX4:RAMP1 Ratio 1:0.75 (Fig. S5D), read-out: IP1 span) was 83.1%, the “IP1 Basal” value (Tet-On MRGPRX4:RAMP1 Ratio 1:1 (Fig. S5D)) was 7.220 and the EC50 (Tet-On MRGPRX4:RAMP1 Ratio 1:1 (Fig. S5D), read-out: IP1 EC50) was 6.43 µM. For the same molecule, the Emax (Tet-On MRGPRX4:RAMP1 Ratio 1:1 (Fig. S5D), read-out: IP1 Emax) was 89.6%, the Emax (Tet-On MRGPRX4:RAMP1 Ratio 1:1 (Fig. S5D), read-out: IP1 span) was 82.3% and the “IP1 accumulation (normalized)” value (log [nateglinide] (M) -4) was 91.5442 and 89.3648 and 84.5333 and 68.7205. The “IP1 accumulation (normalized)” value (log [nateglinide] (M) -4.69897) was 71.6977 and 68.3681 and 72.5875, the “IP1 accumulation (normalized)” value (log [nateglinide] (M) -5.39794) was 40.9098 and 36.9736 and 38.5575 and the “IP1 accumulation (normalized)” value (log [nateglinide] (M) -6.09691) was 15.3098 and 13.9439 and 10.1316.
